Data reported in US10065941B2, “Aminotriazine derivative and pharmaceutical composition comprising the same” (Shionogi & Co., Ltd., priority 2013, dated 2018).

Target: human P2X3 receptor (Homo sapiens (Human), UniProt P56373)
Assay: Evaluation of human P2X3 receptor inhibitory activity (Test Example 1)
Type: cell-based
Conditions: C6BU-1 cell transfected with human P2X3 receptor gene, FLIPR 384
Outline: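 C6BU-1 cells stably expressing human P2X3, loaded with 4 μM Fluo-3-AM 1 h at 37 °C, preincubated 5 min with test compound, then stimulated with 150 nM ATP solution (stock, pre-dispense) and monitored by FLIPR for 4 min. IC50 derived from maximum fluorescence ratio (post-ATP peak over baseline).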

Chain of human P2X3 receptor (P56373 whole entry): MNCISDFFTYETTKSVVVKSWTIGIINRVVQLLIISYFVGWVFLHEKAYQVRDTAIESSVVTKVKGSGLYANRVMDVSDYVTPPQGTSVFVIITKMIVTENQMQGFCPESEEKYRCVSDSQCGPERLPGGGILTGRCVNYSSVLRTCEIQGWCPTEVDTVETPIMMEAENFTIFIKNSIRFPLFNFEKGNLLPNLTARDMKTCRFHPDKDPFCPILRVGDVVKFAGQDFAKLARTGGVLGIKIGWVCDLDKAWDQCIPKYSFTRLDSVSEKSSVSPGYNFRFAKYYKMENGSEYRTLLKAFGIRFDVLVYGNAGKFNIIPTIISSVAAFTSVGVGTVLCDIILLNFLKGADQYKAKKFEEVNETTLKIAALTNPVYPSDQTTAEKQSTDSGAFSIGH

For COC(=O)C(C)(C)Cn1c(=O)[nH]/c(=N\c2ccc(Oc3cncc(OC)c3)cc2)n(Cc2ccc(Cl)cc2)c1=O [Compound R-200], which IC50 is on record?
The IC50 was 8 nM.

Which IC50 does the source give for CCc1ccc(Oc2ccc(/N=c3\[nH]c(=O)n(C[C@H](C)C(=O)O)c(=O)n3Cc3ccc(Cl)cc3)cc2)nc1 [Compound I-258] here?
Its IC50 is 4 nM.

How did the IC50 turn out when O=C(O)C1(Cn2c(=O)[nH]/c(=N\c3ccc(Oc4ccc(F)cn4)cc3)n(Cc3ccc(Cl)cc3)c2=O)COC1 [Compound I-059] was run?
The IC50 was 16 nM.

Which IC50 does the source give for Cc1ccc(Cn2c(=O)n([C@H]3C[C@@H](C(=O)O)C3)c(=O)[nH]/c2=N\c2ccc(Oc3ccc(F)cn3)cc2)cc1 [Compound I-183] here?
The IC50 was 12 nM.

COC(=O)C(C)(C)Cn1c(=O)[nH]/c(=N\c2ccc(Oc3ccc(C)cn3)cc2)n(Cc2ccc(C)cc2)c1=O [Compound I-110] was tested. Which IC50 did it give?
The IC50 was 4 nM.

C[C@@H](Cn1c(=O)[nH]/c(=N\c2ccc(Oc3ccc(CO)cn3)cc2)n(Cc2ccc(Cl)cc2)c1=O)C(=O)O [Compound I-084] was tested. Which IC50 did it give?
The IC50 was 8 nM.

Which IC50 does the source give for COC(=O)C(C)(C)Cn1c(=O)[nH]/c(=N\c2ccc(N3CCCCC3)c(F)c2)n(Cc2ccc(Cl)cc2)c1=O [Compound R-141] here?
The IC50 was 47 nM.

How did the IC50 turn out when CCOC(=O)[C@H]1C[C@@H](n2c(=O)[nH]/c(=N\c3ccc(Oc4ccc(Cl)cn4)cc3)n(Cc3ccc(C)cc3)c2=O)C1 [Compound I-173] was run?
Its IC50 is 8 nM.

How did the IC50 turn out when COC(=O)[C@@H](C)Cn1c(=O)[nH]/c(=N\c2ccc(Oc3cccc(CF)n3)cc2)n(Cc2ccc(C)cc2)c1=O [Compound I-266] was run?
The IC50 was 8 nM.

For Cc1ccc(Cn2c(=O)n(C[C@H](C)C(=O)O)c(=O)[nH]/c2=N\c2ccc(Oc3cccc(C(F)(F)F)n3)cc2)cc1 [Compound I-039], which IC50 is on record?
The IC50 was 8 nM.

For O=C(O)C1(Cn2c(=O)[nH]/c(=N\c3ccc(Oc4ccc(F)cn4)cc3)n(Cc3ccc(Cl)cc3)c2=O)CC1 [Compound I-018], which IC50 is on record?
The IC50 was 12 nM.

How did the IC50 turn out when COC(=O)[C@@H](C)Cn1c(=O)[nH]/c(=N\c2ccc(Oc3cccc(F)n3)cc2)n(CC2CCC3(CC2)CC3)c1=O [Compound I-236] was run?
Its IC50 is 16 nM.

With COC(=O)[C@@H](C)Cn1c(=O)[nH]/c(=N\c2ccc(Oc3ccc(C(C)=O)cn3)cc2)n(Cc2ccc(C)cc2)c1=O [Compound I-267] as the molecule, how does the IC50 read?
The IC50 was 3 nM.

CCn1c(=O)[nH]/c(=N\c2ccc(-c3ccc(C#N)cn3)cc2)n(Cc2ccc(Cl)cc2)c1=O [Compound R-005] was tested. Which IC50 did it give?
The IC50 was 608 nM.

C[C@@H](Cn1c(=O)[nH]/c(=N\c2ccc(Oc3cc(C(F)(F)F)ccn3)cc2)n(Cc2ccc(Cl)cc2)c1=O)C(=O)O [Compound I-088] was tested. Which IC50 did it give?
Its IC50 is 15 nM.

With CC1(C)OCC(Cn2c(=O)[nH]/c(=N\c3ccc(Oc4ccccn4)cc3)n(Cc3ccc(Cl)cc3)c2=O)CO1 [Compound R-245] as the molecule, how does the IC50 read?
The IC50 was 4 nM.

For C[C@@H](C(=O)O)[C@H](C)n1c(=O)[nH]/c(=N\c2ccc(Oc3cnc(C#N)cn3)cc2)n(Cc2ccc(Cl)cc2)c1=O [Compound R-224], which IC50 is on record?
Its IC50 is 12 nM.

Which IC50 does the source give for Cc1ccc(Cn2c(=O)n(CC(C)(C)C(=O)O)c(=O)[nH]/c2=N\c2ccc(Oc3ccc(F)cn3)cc2)cc1 [Compound I-041] here?
Its IC50 is 9 nM.

Which IC50 does the source give for COc1nc(=O)n(Cc2ccc(Cl)cc2)/c(=N/c2ccc(Oc3cccc(C#N)n3)cc2)[nH]1 [Compound R-232] here?
The IC50 was 61 nM.

With C[C@@H](Cn1c(=O)[nH]/c(=N\c2ccc(Oc3cnc(C#N)nc3)cc2)n(Cc2ccc(Cl)cc2)c1=O)C(=O)O [Compound R-246] as the molecule, how does the IC50 read?
Its IC50 is 6 nM.

COC(=O)[C@@H](C)Cn1c(=O)[nH]/c(=N\c2ccc(O[C@H](C)C(F)(F)F)c(C)c2)n(Cc2ccc(Cl)cc2)c1=O [Compound R-097] was tested. Which IC50 did it give?
The IC50 was 212 nM.

CC(C)(Cn1c(=O)[nH]/c(=N\c2ccc(Oc3ccnc(Cl)c3)cc2)n(Cc2ccc(Cl)cc2)c1=O)C(=O)O [Compound R-089] was tested. Which IC50 did it give?
Its IC50 is 7 nM.

How did the IC50 turn out when NC(=O)CCn1c(=O)[nH]/c(=N\c2ccc(Oc3ccccn3)cc2)n(Cc2ccc(Cl)cc2)c1=O [Compound R-229] was run?
The IC50 was 7 nM.

For C[C@@H](Cn1c(=O)[nH]/c(=N\c2ccc(Oc3cc(CO)ccn3)cc2)n(Cc2ccc(Cl)cc2)c1=O)C(=O)O [Compound I-240], which IC50 is on record?
The IC50 was 22 nM.

How did the IC50 turn out when COCc1ccc(Oc2ccc(/N=c3\[nH]c(=O)n(C[C@H](C)C(=O)OC)c(=O)n3Cc3ccc(Cl)cc3)cc2)nc1 [Compound I-247] was run?
The IC50 was 6 nM.

Which IC50 does the source give for C[C@@H](Oc1ccc(/N=c2\[nH]c(=O)n(CC(C)(C)C(=O)O)c(=O)n2Cc2ccc(Cl)cc2)cc1O[C@H](C)C(F)(F)F)C(F)(F)F [Compound R-096] here?
The IC50 was 156 nM.

How did the IC50 turn out when COC(=O)C(C)(C)Cn1c(=O)[nH]/c(=N\c2ccc(Oc3cccc(F)n3)cc2)n(Cc2ccc(Cl)cc2)c1=O [Compound I-008] was run?
Its IC50 is 7 nM.

For C[C@@H](Cn1c(=O)[nH]/c(=N\c2ccc(Oc3ccc(CF)nc3)cc2)n(Cc2ccc(Cl)cc2)c1=O)C(=O)O [Compound I-233], which IC50 is on record?
Its IC50 is 6 nM.

How did the IC50 turn out when COC(=O)[C@@H](C)Cn1c(=O)[nH]/c(=N\c2ccc(Oc3cc(C(F)(F)F)ccn3)cc2)n(Cc2ccc(Cl)cc2)c1=O [Compound I-082] was run?
Its IC50 is 112 nM.

With COC(=O)C(C)(C)Cn1c(=O)[nH]/c(=N\c2ccc(Oc3ccc(OC(F)F)cn3)cc2)n(Cc2ccc(Cl)cc2)c1=O [Compound I-021] as the molecule, how does the IC50 read?
The IC50 was 25 nM.

With COc1cc(Oc2ccc(/N=c3\[nH]c(=O)n(C[C@H](C)C(=O)O)c(=O)n3Cc3ccc(Cl)cc3)cc2)cc(F)n1 [Compound R-058] as the molecule, how does the IC50 read?
Its IC50 is 4 nM.

For C[C@@H](Cn1c(=O)[nH]/c(=N\c2ccc(Oc3ccc(F)cn3)cc2)n(Cc2ccc(F)cc2F)c1=O)C(=O)O [Compound I-028], which IC50 is on record?
Its IC50 is 20 nM.

For CC(C)(C)n1c(=O)[nH]/c(=N\c2ccc(Oc3ccc(-c4cccc(C(=O)O)c4)cn3)cc2)n(Cc2ccc(Cl)cc2)c1=O [Compound R-001], which IC50 is on record?
Its IC50 is 7 nM.

COC(=O)[C@@H](C)Cn1c(=O)[nH]/c(=N\c2ccc(Oc3cccc(CO)n3)cc2)n(Cc2ccc(Cl)cc2)c1=O [Compound I-245] was tested. Which IC50 did it give?
Its IC50 is 14 nM.

O=C(O)C1(Cn2c(=O)[nH]/c(=N\c3ccc(Oc4ncccc4F)cc3)n(Cc3ccc(Cl)cc3)c2=O)COC1 [Compound I-050] was tested. Which IC50 did it give?
Its IC50 is 28 nM.

For O=c1[nH]c(=O)n(Cc2ccc(Cl)cc2)/c(=N/c2ccc(Oc3ccc(F)cn3)cc2)[nH]1 [Compound R-170], which IC50 is on record?
Its IC50 is 193 nM.

Which IC50 does the source give for COC(=O)[C@@H](C)Cn1c(=O)[nH]/c(=N\c2ccc(Oc3ccnc(C)n3)cc2)n(Cc2ccc(Cl)cc2)c1=O [Compound R-042] here?
The IC50 was 5 nM.

With COC(=O)[C@@H](C)Cn1c(=O)[nH]/c(=N\c2ccc(OC3CCC3)c(F)c2)n(Cc2ccc(Cl)cc2)c1=O [Compound R-072] as the molecule, how does the IC50 read?
Its IC50 is 16 nM.

COC(=O)[C@@H](C)Cn1c(=O)[nH]/c(=N\c2ccc(Oc3ccc(CO)nc3)cc2)n(Cc2ccc(Cl)cc2)c1=O [Compound R-152] was tested. Which IC50 did it give?
Its IC50 is 5 nM.

With O=c1[nH]/c(=N\c2ccc(Oc3ncccc3F)cc2)n(Cc2ccc(Cl)cc2)c(=O)n1[C@H]1C[C@@H](C(=O)O)C1 [Compound I-064] as the molecule, how does the IC50 read?
The IC50 was 10 nM.

How did the IC50 turn out when O=c1[nH]/c(=N\c2ccc(Oc3ccc(F)cn3)cc2)n(Cc2ccc(Cl)cc2)c(=O)n1[C@H]1C[C@@H](C(=O)O)C1 [Compound I-020] was run?
The IC50 was 9 nM.

With COC(=O)[C@@H](C)Cn1c(=O)[nH]/c(=N\c2ccc(Oc3ccc(C)cn3)cc2)n(Cc2ccc(Cl)cc2)c1=O [Compound I-051] as the molecule, how does the IC50 read?
Its IC50 is 6 nM.

How did the IC50 turn out when C[C@@H](Cn1c(=O)[nH]/c(=N\c2ccc(Oc3ncccc3F)cc2)n(Cc2ccc(CF)cc2)c1=O)C(=O)O [Compound I-215] was run?
The IC50 was 16 nM.

With COC(=O)C(C)(C)Cn1c(=O)[nH]/c(=N\c2ccc(O[C@H](C)C(F)(F)F)c(F)c2)n(Cc2ccc(Cl)cc2)c1=O [Compound R-091] as the molecule, how does the IC50 read?
The IC50 was 108 nM.

Which IC50 does the source give for COC(=O)[C@@H](C)Cn1c(=O)[nH]/c(=N\c2ccc(Oc3cccc(C(F)(F)F)n3)cc2)n(Cc2ccc(C)cc2)c1=O [Compound I-035] here?
The IC50 was 12 nM.

COC(=O)[C@H](C)[C@H](C)n1c(=O)[nH]/c(=N\c2ccc(Oc3ccc(OC(F)F)cn3)cc2)n(Cc2ccc(C)cc2)c1=O [Compound I-137] was tested. Which IC50 did it give?
The IC50 was 14 nM.

With CCc1ccc(Oc2ccc(/N=c3\[nH]c(=O)n(C[C@H](C)C(=O)OC)c(=O)n3Cc3ccc(C)cc3)cc2)nc1 [Compound I-270] as the molecule, how does the IC50 read?
Its IC50 is 4 nM.

How did the IC50 turn out when COC(=O)[C@@H](C)Cn1c(=O)[nH]/c(=N\c2ccc(Oc3cccnc3)cc2)n(Cc2ccc(Cl)cc2)c1=O [Compound R-205] was run?
The IC50 was 8 nM.

With CO[C@@H](Cn1c(=O)[nH]/c(=N\c2ccc(Oc3ccccn3)cc2)n(Cc2ccc(Cl)cc2)c1=O)C(=O)O [Compound I-146] as the molecule, how does the IC50 read?
Its IC50 is 5 nM.

C[C@@H](Cn1c(=O)[nH]/c(=N\c2ccc(Oc3ccccn3)cc2)n(Cc2ccc(Cl)s2)c1=O)C(=O)O [Compound I-273] was tested. Which IC50 did it give?
The IC50 was 5 nM.

For C[C@@H](Cn1c(=O)[nH]/c(=N\c2ccc(Oc3cc(Cl)ncn3)cc2)n(Cc2ccc(Cl)cc2)c1=O)C(=O)O [Compound R-124], which IC50 is on record?
The IC50 was 9 nM.

For Cc1cc(/N=c2\[nH]c(=O)n(CC(C)(C)C(=O)O)c(=O)n2Cc2ccc(Cl)cc2)ccc1Oc1cncc(F)c1 [Compound R-118], which IC50 is on record?
Its IC50 is 5 nM.

Which IC50 does the source give for CC(C)(Cn1c(=O)[nH]/c(=N\c2ccc(Oc3cc(C(F)(F)F)ccn3)cc2)n(Cc2ccc(Cl)cc2)c1=O)C(=O)O [Compound I-092] here?
The IC50 was 68 nM.

With Cc1ccc(Cn2c(=O)n([C@@H](C)[C@@H](C)C(=O)O)c(=O)[nH]/c2=N\c2ccc(Oc3ncccc3F)cc2)cc1 [Compound I-096] as the molecule, how does the IC50 read?
Its IC50 is 8 nM.

C[C@@H](Cn1c(=O)[nH]/c(=N\c2ccc(Oc3ccccn3)cc2)n(Cc2ccc(C(F)F)cc2)c1=O)C(=O)O [Compound I-201] was tested. Which IC50 did it give?
Its IC50 is 13 nM.

How did the IC50 turn out when COCc1ccc(Oc2ccc(/N=c3\[nH]c(=O)n(C[C@H](C)C(=O)O)c(=O)n3Cc3ccc(Cl)cc3)cc2)nc1 [Compound I-241] was run?
Its IC50 is 8 nM.

With C[C@@H](Cn1c(=O)[nH]/c(=N\c2ccc(Oc3ccc(F)cn3)cc2)n(CC2CC3(CCC3)C2)c1=O)C(=O)O [Compound I-264] as the molecule, how does the IC50 read?
The IC50 was 5 nM.

For Cc1ccc(Cn2c(=O)n(CCC(=O)O)c(=O)[nH]/c2=N\c2ccc(Oc3ccccn3)c(C)c2)cc1 [Compound R-282], which IC50 is on record?
Its IC50 is 23 nM.

For Cc1nsc(Oc2ccc(/N=c3\[nH]c(=O)n(C[C@H](C)C(=O)O)c(=O)n3Cc3ccc(Cl)cc3)cc2)n1 [Compound R-160], which IC50 is on record?
Its IC50 is 8 nM.

CC(C)(Cn1c(=O)[nH]/c(=N\c2ccc(Oc3ccccn3)c(F)c2)n(Cc2ccc(Cl)cc2)c1=O)C(=O)O [Compound I-230] was tested. Which IC50 did it give?
The IC50 was 11 nM.
